Assay [1] has as its system RCC4/VHL. The assay is described as follows: Necrotic cell death by trypan blue, RCC4/VHL. Type of assay: cell-based, human. As to conditions: 3 days, 5 μM, FIG. 2F. On the procedure:
For 2,3-bis[2-methoxy-4-nitro-5-sulfophenyl]-2H-tetrazolium-5-carboxanilide (XTT) assays, five thousand cells were plated in 96-well plates. The next day, vehicle (DMSO) or drug was added by serial dilution. Four days later, media were aspirated, XTT solution (0.3 mg/ml of XTT (Sigma), 2.65 mg/ml N-methyl dibenxopyrazine methyl sulfate (Simga) in phenol red-free media) was added, and the plates were incubated at 37° C. for 1-2 hours. Metabolism of XTT was quantified by measuring the absorbance at 450 nm. IC50s were calculated using linear interpolation. For clonogenic survival assays, three hundred cells were plated per 60 mm tissue culture dish. The cells were allowed to attach overnight and then treated with vehicle or drug for 14 days. Colonies were fixed and stained with crystal violet (0.1% crystal violet in 95% ethanol). All conditions were measured in triplicate and each experiment was done in duplicate or triplicate. To determine necrosis, cells were treated with drug for a given time point. Media and cells were collected, centrifugated, and resuspended in 0.4% trypan blue (Invitrogen). Live and dead cells were counted on a hematocytometer.

Assay [2] relates to RCC4/VHL. Kind of assay: 3H-2-deoxyglucose uptake, RCC4/VHL. The assay is classed as cell-based, human. The following applies: 5 μM. On the procedure:
One hundred thousand cells were plated into 6-well plates. The following day, the cells were treated with vehicle or drug and incubated for the indicated time. Cells were washed twice in phosphate buffered saline and low glucose media was added for 30 minutes. Cells were then incubated with 0.5 microCi of tritiated-2-deoxyglucose and incubated for an hour at 37° C. Cells were washed twice in PBS and then lysed in 0.2 N NaOH and 0.2% SDS. Lysates were transferred to scintillation tubes with scintillation fluid and quantified by scintillation counter.
One hundred thousand cells were plated per well in a six-well plate. The next day, cells were treated with the indicated concentration of drug and incubated for the indicated time. Cells were then washed twice with phosphate-buffered saline, incubated in low-glucose medium for 30 minutes, and ^3H-2-deoxyglucose (0.5 μCi) was added in 1 ml of glucose-free media for an additional hour. Cells were washed twice in PBS and lysed (0.2 N NaOH and 0.2% sodium dodecyl sulfate). Glucose uptake was quantified with a scintillation counter.

Assay [3] deals with RCC4 cells transfected with siRNA to HIF-1β. The assay is described as follows: 3H-2-deoxyglucose uptake, RCC4 with siRNA to HIF-1β. Type of assay: cell-based, human. As to conditions: 5 μM, FIG. 3E. On the procedure:
(§1) All cells were grown in DMEM+10% FCS. ACHN and ACHN shVHL were a kind gift from George V. Thomas (UCLA). HIF overexpressing clones were described previously. Transfection of RNA oligos were performed with DnarmaFECT Reagent 1 (Dharmcon), according to manufacturer's directions. ON-TARGETplus SMART pools against HIF-1β/ARNT were purchased from Dharmacon. Glut1 was detected with anti-GLUT1 antibody from NeoMarkers/LabVision/Fisher. Pyruvate/lactate levels and hexokinase activity were both measured by fluorometric assay (BioVision and Sigma-Aldrich, respectively). ATP levels were measured by bioluminescence assay (ATP Determination Kit from Molecular Probes/Invitrogen). In vitro kinase activities were performed by Millipore KinaseProfiler. Affi-Gel 10 (BioRad) activated affinity media was coupled to analogs to generate immobilized affinity linkers.
One hundred thousand cells were plated per well in a six-well plate. The next day, cells were treated with the indicated concentration of drug and incubated for the indicated time. […] Glucose uptake was quantified with a scintillation counter.
To further investigate the relationship between HIF and compound 47 toxicity, we silenced HIF-1β in RCC4 cells and assessed its affect on glucose uptake. […]

In a further assay the test system is 50 different kinases. The assay is described as follows: In vitro kinase panel (Millipore KinaseProfiler), summary. Type of assay: biochemical. On the procedure: as §1
(§2) We next wanted to investigate the differential glucose uptake between RCCs with and without VHL treated with compound 47 that subsequently lead to the selective death of VHL-deficient cells. We first examined the message levels of the two main glucose transporters, GLUT1 and GLUT2 by quantitative real-time PCR. GLUT1 is an inducible, high-affinity glucose transporter, while GLUT2 is the glucose transporter responsible for basal glucose uptake. […] Cells deficient in VHL had very low levels of GLUT2 that could barely be detected (FIG. 3J). […]

The next assay has as its target T1, Abl (Homo sapiens, UniProt P00519).
T1 construct: purchased Millipore (KinaseProfiler service)
Kind of assay: In vitro kinase activity (Millipore KinaseProfiler): Abl. Type of assay: biochemical. The following applies: no head or unit printed. On the procedure: as §1, §2

Another assay has as its target T2, Aurora-A (Homo sapiens, UniProt O14965).
T2 construct: purchased Millipore (KinaseProfiler service)
Kind of assay: In vitro kinase activity (Millipore KinaseProfiler): Aurora-A. The assay is classed as biochemical. The following applies: no head or unit printed. Here is the method:
as §1, §2

The target in the next assay is T3, DYRK2 (Homo sapiens, UniProt Q92630).
T3 construct: purchased Millipore (KinaseProfiler service)
The assay is described as follows: In vitro kinase activity (Millipore KinaseProfiler): DYRK2. The assay is classed as biochemical. The following applies: no head or unit printed. On the procedure:
as §1, §2

For a further assay, the target named is T4, FGFR1 (Homo sapiens, UniProt P11362).
T4 construct: purchased Millipore (KinaseProfiler service)
The assay is described as follows: In vitro kinase activity (Millipore KinaseProfiler): FGFR1. The following applies: no head or unit printed. The assay is classed as biochemical. Here is the method: as §1, §2

The next assay deals with T5, Hck (Homo sapiens, UniProt P08631).
T5 construct: purchased Millipore (KinaseProfiler service)
T5 sequence (P08631 whole entry, species assumed): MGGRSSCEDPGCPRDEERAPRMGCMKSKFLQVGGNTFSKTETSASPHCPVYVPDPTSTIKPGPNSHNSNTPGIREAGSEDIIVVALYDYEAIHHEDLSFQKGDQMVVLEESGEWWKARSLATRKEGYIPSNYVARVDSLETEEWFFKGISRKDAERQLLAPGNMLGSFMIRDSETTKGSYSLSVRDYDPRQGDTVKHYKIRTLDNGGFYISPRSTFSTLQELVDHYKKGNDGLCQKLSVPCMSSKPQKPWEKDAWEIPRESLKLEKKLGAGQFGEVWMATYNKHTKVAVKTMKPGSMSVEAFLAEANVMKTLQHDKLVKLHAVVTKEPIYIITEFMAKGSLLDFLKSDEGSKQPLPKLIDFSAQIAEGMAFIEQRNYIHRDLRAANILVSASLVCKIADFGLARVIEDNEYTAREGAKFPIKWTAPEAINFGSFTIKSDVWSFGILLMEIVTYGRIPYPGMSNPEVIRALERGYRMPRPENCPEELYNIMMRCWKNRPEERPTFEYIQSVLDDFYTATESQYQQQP
Kind of assay: In vitro kinase activity (Millipore KinaseProfiler): Hck. The assay is classed as biochemical. The following applies: no head or unit printed. Here is the method:
as §1, §2

In the next assay the target is T6, IRAK1 (Homo sapiens, UniProt P51617).
T6 construct: purchased Millipore (KinaseProfiler service)
Kind of assay: In vitro kinase activity (Millipore KinaseProfiler): IRAK1. Type of assay: biochemical. The following applies: no head or unit printed. Here is the method: as §1, §2

Another assay has as its target T7, JNK1α1 (Homo sapiens, UniProt P45983).
T7 construct: purchased Millipore (KinaseProfiler service)
Kind of assay: In vitro kinase activity (Millipore KinaseProfiler): JNK1α1. Type of assay: biochemical. The following applies: no head or unit printed. On the procedure: as §1, §2

The target in a further assay is T8, MAPKAP-K2 (Homo sapiens, UniProt P49137).
T8 construct: purchased Millipore (KinaseProfiler service)
T8 sequence (P49137 whole entry, species assumed): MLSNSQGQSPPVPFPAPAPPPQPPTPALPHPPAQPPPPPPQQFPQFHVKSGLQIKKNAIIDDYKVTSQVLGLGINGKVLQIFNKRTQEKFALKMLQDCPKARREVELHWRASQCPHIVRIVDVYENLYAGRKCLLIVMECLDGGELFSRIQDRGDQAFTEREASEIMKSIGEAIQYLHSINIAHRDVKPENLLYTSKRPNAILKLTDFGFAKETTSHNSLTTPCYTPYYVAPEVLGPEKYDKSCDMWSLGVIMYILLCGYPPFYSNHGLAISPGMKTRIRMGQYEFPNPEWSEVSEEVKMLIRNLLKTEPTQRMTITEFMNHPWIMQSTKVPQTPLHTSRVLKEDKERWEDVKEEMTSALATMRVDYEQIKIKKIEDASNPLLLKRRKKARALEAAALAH
The assay is described as follows: In vitro kinase activity (Millipore KinaseProfiler): MAPKAP-K2. The assay is classed as biochemical. The following applies: no head or unit printed. Here is the method:
as §1, §2

Another assay deals with T9, MLK1 (Homo sapiens, UniProt P80192).
T9 construct: purchased Millipore (KinaseProfiler service)
T9 sequence (P80192 whole entry, species assumed): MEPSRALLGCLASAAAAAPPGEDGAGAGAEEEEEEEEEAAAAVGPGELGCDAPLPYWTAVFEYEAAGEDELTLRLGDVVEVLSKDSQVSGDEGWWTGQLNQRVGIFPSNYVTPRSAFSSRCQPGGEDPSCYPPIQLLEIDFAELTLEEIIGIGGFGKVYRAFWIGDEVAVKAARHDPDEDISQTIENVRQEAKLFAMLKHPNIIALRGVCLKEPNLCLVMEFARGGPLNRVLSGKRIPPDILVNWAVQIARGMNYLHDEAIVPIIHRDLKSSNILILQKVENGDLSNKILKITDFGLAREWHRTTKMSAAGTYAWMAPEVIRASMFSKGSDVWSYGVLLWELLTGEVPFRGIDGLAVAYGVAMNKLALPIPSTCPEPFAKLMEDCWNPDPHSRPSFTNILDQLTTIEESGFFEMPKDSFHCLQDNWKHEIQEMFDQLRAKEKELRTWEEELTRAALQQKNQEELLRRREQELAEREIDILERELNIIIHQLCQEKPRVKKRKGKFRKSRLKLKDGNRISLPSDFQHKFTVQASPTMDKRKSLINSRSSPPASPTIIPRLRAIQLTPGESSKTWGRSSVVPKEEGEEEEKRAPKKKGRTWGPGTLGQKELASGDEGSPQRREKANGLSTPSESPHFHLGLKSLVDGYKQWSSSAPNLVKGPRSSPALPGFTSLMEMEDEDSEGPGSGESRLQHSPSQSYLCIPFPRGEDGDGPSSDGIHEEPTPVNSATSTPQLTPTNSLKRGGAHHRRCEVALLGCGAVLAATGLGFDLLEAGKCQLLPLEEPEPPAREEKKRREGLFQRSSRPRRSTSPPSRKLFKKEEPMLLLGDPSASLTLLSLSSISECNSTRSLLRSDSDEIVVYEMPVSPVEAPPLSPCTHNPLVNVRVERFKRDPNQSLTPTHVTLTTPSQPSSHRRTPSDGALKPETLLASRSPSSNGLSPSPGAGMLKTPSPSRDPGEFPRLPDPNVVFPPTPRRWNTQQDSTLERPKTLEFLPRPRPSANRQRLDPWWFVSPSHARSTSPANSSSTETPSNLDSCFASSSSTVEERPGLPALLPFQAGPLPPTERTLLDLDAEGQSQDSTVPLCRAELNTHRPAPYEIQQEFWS
Kind of assay: In vitro kinase activity (Millipore KinaseProfiler): MLK1. Type of assay: biochemical. The following applies: no head or unit printed. On the procedure:
as §1, §2

For the next assay, the target named is T10, Rsk1 (Homo sapiens, UniProt Q15418).
T10 construct: purchased Millipore (KinaseProfiler service)
T10 sequence (Q15418 whole entry, species assumed): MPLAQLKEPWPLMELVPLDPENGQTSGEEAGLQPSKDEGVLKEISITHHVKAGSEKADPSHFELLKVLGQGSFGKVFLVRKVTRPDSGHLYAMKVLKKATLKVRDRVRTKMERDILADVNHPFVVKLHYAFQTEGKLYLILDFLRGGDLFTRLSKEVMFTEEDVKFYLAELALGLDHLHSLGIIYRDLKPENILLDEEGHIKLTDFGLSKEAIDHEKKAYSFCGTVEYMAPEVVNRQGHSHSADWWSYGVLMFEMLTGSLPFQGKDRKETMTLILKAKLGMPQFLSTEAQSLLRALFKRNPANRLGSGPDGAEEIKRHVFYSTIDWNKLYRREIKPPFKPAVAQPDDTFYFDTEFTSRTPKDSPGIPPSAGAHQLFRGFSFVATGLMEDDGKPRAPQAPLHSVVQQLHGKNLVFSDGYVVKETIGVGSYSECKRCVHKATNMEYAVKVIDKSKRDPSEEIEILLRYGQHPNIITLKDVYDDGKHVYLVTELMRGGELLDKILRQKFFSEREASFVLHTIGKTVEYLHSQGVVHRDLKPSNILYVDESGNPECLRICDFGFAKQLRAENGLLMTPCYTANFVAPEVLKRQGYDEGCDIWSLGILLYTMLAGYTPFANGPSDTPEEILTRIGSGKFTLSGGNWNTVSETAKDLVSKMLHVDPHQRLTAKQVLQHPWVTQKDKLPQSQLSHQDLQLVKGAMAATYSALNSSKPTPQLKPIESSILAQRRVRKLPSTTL
Kind of assay: In vitro kinase activity (Millipore KinaseProfiler): Rsk1. The assay is classed as biochemical. The following applies: no head or unit printed. On the procedure: as §1, §2

T1 sequence (P00519 whole entry, species assumed): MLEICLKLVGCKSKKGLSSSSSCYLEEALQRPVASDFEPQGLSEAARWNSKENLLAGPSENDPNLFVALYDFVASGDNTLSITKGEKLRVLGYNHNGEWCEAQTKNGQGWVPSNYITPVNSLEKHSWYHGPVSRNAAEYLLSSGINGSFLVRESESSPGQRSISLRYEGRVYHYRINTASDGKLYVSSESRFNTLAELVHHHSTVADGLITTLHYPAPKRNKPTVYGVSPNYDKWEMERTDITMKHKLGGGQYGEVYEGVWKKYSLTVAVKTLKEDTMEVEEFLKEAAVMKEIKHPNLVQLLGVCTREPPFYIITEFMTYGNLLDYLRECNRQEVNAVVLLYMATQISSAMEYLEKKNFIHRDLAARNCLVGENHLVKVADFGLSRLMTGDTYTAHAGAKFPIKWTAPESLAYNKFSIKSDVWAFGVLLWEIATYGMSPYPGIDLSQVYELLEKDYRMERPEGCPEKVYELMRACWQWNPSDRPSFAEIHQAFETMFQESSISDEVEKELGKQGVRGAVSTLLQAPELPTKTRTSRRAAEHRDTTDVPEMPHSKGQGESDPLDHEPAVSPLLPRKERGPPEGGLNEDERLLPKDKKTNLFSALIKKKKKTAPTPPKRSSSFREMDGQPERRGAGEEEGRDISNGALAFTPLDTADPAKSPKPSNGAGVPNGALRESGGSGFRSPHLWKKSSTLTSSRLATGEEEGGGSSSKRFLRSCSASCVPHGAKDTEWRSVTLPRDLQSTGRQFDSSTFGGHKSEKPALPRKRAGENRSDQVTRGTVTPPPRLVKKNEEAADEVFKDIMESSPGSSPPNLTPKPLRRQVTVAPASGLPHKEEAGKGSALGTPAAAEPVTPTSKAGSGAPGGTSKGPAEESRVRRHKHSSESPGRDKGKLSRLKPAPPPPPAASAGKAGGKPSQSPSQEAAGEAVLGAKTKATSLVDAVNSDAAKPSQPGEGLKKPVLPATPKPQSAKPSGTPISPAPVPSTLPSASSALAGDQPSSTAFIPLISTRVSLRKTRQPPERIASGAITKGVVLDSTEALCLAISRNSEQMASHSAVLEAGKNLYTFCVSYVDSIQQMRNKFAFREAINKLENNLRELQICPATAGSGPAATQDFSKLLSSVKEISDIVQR
T7 sequence (P45983 1-384 isoform P45983-2, species assumed): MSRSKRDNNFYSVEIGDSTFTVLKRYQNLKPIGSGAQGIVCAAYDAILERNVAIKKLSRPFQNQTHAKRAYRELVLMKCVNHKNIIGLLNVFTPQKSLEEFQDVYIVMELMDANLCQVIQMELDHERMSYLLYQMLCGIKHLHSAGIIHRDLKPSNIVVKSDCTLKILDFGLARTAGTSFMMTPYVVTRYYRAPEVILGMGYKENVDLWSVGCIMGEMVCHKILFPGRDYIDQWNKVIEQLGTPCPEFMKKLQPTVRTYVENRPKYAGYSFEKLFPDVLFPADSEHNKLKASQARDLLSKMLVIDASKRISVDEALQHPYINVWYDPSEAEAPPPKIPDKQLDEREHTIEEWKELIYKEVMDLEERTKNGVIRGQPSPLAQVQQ
T2 sequence (O14965 whole entry): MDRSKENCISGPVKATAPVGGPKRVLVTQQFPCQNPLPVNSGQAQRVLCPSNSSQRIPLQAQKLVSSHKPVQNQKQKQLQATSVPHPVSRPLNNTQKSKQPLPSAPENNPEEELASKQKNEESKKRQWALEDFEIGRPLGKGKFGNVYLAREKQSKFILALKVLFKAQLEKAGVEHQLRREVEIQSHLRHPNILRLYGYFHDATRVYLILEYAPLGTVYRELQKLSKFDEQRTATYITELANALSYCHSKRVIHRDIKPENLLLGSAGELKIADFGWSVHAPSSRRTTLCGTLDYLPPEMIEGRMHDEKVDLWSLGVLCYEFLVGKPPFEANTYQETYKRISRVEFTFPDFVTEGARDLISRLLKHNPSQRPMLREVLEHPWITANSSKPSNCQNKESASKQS

As for `CC(C)(C)c1ccc(S(=O)(=O)NCc2ccc(C(=O)Nc3cccnc3)cc2)cc1` [Example 38, 4-((4-tert-Butylphenylsulfonamido)methyl)-N-(pyridin-3-yl)benzamide], in the assay on RCC4/VHL [1], the “necrotic cell death in RCC4/VHL” value is recorded as “relatively insensitive”. In addition, in the assay with RCC4/VHL [2], the “glucose uptake in RCC4/VHL cells” value is “unaffected”. The “glucose uptake in RCC4 with HIF-1β silenced” value in assay [3] is reported as “insensitive”. Further, in the assay on 50 different kinases, the “decrease in activity of 50 different kinases” value was “no significant decrease”. The Abl kinase activity on Abl turned out to be 108. The Aurora-A kinase activity on Aurora-A amounted to 108%. Further, the DYRK2 kinase activity on DYRK2 worked out at 94%. Further, the FGFR1 kinase activity on FGFR1 is 107%. On Hck, the Hck kinase activity came to 84%. The IRAK1 kinase activity on IRAK1 was 105%. The compound further had a JNK1α1 kinase activity at JNK1α1 of 101. The compound also yielded an MAPKAP-K2 kinase activity on MAPKAP-K2 of 87. The compound also registered an MLK1 kinase activity on MLK1 of 97%. Also, on Rsk1, the Rsk1 kinase activity was 120%.

Values taken from US20120225862A1, “HETEROARYL BENZAMIDES, COMPOSITIONS AND METHODS OF USE” (AUCKLAND UNIVSERVICES LIMITED, priority 2009, published 2012).
